{"source": "patent US20210047398A1", "about": "“ASPROSIN, A FAST-INDUCED GLUCOGENIC PROTEIN HORMONE” (Baylor College of Medicine, priority 2016, published 2021)", "molecules": {"B1": {"name": "mammalian-generated asprosin: Human asprosin with C-terminal 6x His tag expressed in Expi293 mammalian cells, glycosylated (protein)", "chain": "STNETDASNIEDQSETEANVSLASWDVEKTAIFAFNISHVSNKVRILELLPALTTLTNHNRYLIESGNEDGFFKINQKEGISYLHFTKKKPVAGTYSLQISSTPLYKKKELNQLEDKYDKDYLSGELGDNLKMKIQVLLHHHHHHH"}}, "key": {"AgRP neurons": {"system": "AgRP neurons", "assay": "Whole-cell patch clamp recordings on AgRP neurons", "type": "cell-based, mice", "conditions": "for effect of pre-treating on asprosin-mediated AgRP neuron activation (firing frequency and resting membrane potential): 100 μM NKY80, 50 μM suramin, 20 μM NF449, 50 μM PTX, 1 μM PKI, 100 μM [D-Lys3]-GHRP-6", "experimental": "Electrophysiology—Whole-cell patch clamp recordings were performed on identified AgRP neurons or POMC neurons in the brain slices containing the arcuate nucleus of the hypothalamus (ARH). In particular, to identify AgRP neurons, the inventors crossed Rosa26-tdTOMATO allele onto the regular AgRP-Cre mice (Tong et al., 2008) to generate AgRP-Cre/Rosa26-tdTOMATO mice, which express TOMATO selectively in AgRP/NPY neurons. In some studies, the inventors crossed NPY-GFP mice (Pinto et al., 2004) with NPS mice to generate NPY-GFP mice with or without the NPS mutation, and GFP-labelled neurons in the arcuate nucleus were recorded. In order to record POMC neurons, the inventors crossed Rosa26-tdTOMATO allele onto the POMC-CreERT2 mice (Berglund et al., 2013) to generate POMC-CreERT2/Rosa26-tdTOMATO mice, which express TOMATO selectively in mature POMC neurons upon tamoxifen induction (0.2 mg/g, i.p. 6 weeks of age). In some studies, the inventors also crossed the AgRP-DTR allele onto POMC-GFP mice, and these mice received DT or saline injections (described above) to generate mice with or without AgRP neurons ablated.\nSix to twelve-week old mice were deeply anesthetized with isoflurane and transcardially perfused with a modified ice-cold sucrose-based cutting solution (pH 7.3) containing 10 mM NaCl, 25 mM NaHCO3, 195 mM Sucrose, 5 mM Glucose, 2.5 mM KCl, 1.25 mM NaH2PO4, 2 mM Na-Pyruvate, 0.5 mM CaCl2, and 7 mM MgCl2, bubbled continuously with 95% O2 and 5% CO2 (Ren et al., 2012). The mice were then decapitated, and the entire brain was removed and immediately submerged in the cutting solution. Slices (250 μm) were cut with a Microm HM 650V vibratome (Thermo Scientific). Three brain slices containing the arcuate nucleus were obtained for each animal (Bregma −2.06 mm to −1.46 mm; Interaural 1.74 mm to 2.34 mm), and recordings were made at levels throughout this brain region. The slices were recovered for 1 h at 34° C. and then maintained at room temperature in artificial cerebrospinal fluid (aCSF, pH 7.3) containing 126 mM NaCl, 2.5 mM KCl, 2.4 mM CaCl2, 1.2 mM NaH2PO4, 1.2 mM MgCl2, 11.1 mM glucose, and 21.4 mM NaHCO3) saturated with 95% O2 and 5% CO2 before recording.\nSlices were transferred to a recording chamber and allowed to equilibrate for at least 10 min before recording. The slices were superfused at 34° C. in oxygenated aCSF at a flow rate of 1.8-2 ml/min. GFP or TOMATO-labeled neurons in the ARH were visualized using epifluorescence and IR-DIC imaging on an upright microscope (Eclipse FN-1, Nikon) equipped with a moveable stage (MP-285, Sutter Instrument). Patch pipettes with resistances of 3-5 MΩ were filled with intracellular solution (pH 7.3) containing 128 mM K-Gluconate, 10 mM KCl, 10 mM HEPES, 0.1 mM EGTA, 2 mM MgCl2, 0.05 mM Na-GTP and 0.05 mM Mg-ATP. Recordings were made using a MultiClamp 700B amplifier (Axon Instrument), sampled using Digidata 1440A and analyzed offline with pClamp 10.3 software (Axon Instruments). Series resistance was monitored during the recording, and the values were generally <10 MΩ and were not compensated. The liquid junction potential was +12.5 mV, and was corrected after the experiment. Data were excluded if the series resistance increased dramatically during the experiment or without overshoot for action potential. Currents were amplified, filtered at 1 kHz, and digitized at 20 kHz. Current clamp was engaged to test neural firing frequency and resting membrane potential (RM) at the baseline and puff delivered recombinant Asprosin (500 ms at various concentrations indicated in the figures). For the asprosin antibody pre-incubation experiment, asprosin and anti-asprosin mAB or IgG were gently mixed at a 1:100 ratio, and then kept on ice for one hour before recording. After AgRP or POMC neuron response to asprosin alone was confirmed, the mixture of recombinant asprosin and anti-asprosin mAB or IgG was perfused to treat the AgRP or POMC neurons for 4 minutes. […]"}, "[1]": {"system": "mouse primary hepatocytes", "experimental": "Cell Culture. Primary mouse hepatocytes were isolated from 8- to 12-week-old WT mice using standard methodology. […] The cells were treated with 50 nM recombinant asprosin or GFP for 10 minutes for cAMP and PKA assays and for 2 hours for the in vitro glucose production assay. Cells were pretreated with various inhibitors for 1 hour prior to treatment with asprosin, GFP, Glucagon or Epinephrine. cAMP was measured from cell lysates using the cAMP direct immunoassay kit from Cell Biolabs. PKA activity was measured from cell lysates using the PKA kinase activity kit from Enzo Lifesciences, Inc. Media glucose content was measured using the Glucose Colorimetric Assay Kit from Biovision. Results were normalized to protein content."}, "[2]": {"assay": "SPECT scans and gamma counting after intravenous I125-asprosin", "type": "in vivo, mice", "conditions": "15 minutes after intravenous injection of 150 μCi", "experimental": "FIGS. 22A-22E: Asprosin traffics to the liver in vivo and binds the hepatocyte surface with high affinity in a saturable and competitive manner. (FIG. 22A) SPECT scans were performed 15 minutes after intravenous injection with 150 μCi I125-asprosin, boiled I125-asprosin, or free I125 in live, anesthetized mice previously injected with bismuth as a hepatic contrast agent. 3 representative images are shown in axial and coronal planes. (FIG. 22B) Liver asprosin accumulation was measured as liver photon intensity from mice in (FIG. 22A). (FIG. 22C) Tissue radioactivity (normalized to tissue weight) was measured using a γ-counter after sacrificing mice from (FIG. 22A), 45 minutes following injection (n=4 mice). (FIG. 22D) Sandwich ELISA was used to measure plasma His tag (recombinant asprosin contains an N-terminal His tag) in WT mice before injection and 15, 30, 60 and 120 minutes after injection with 30 μg recombinant asprosin. The time taken for peak signal to fall to half-maximal level is indicated by the arrow. […] Specific binding (shown in red) was calculated as the difference between the two curves. Data are represented as the mean±SEM.\nRecombinant asprosin was labeled with iodine-125 (I^125) and injected intravenously in mice, followed by single-photon emission computerized tomography (SPECT) scans to identify sites of accumulation. […]"}, "[3]": {"assay": "Food intake, energy expenditure and body composition after asprosin gain-of-function", "type": "in vivo, mice", "conditions": "single subcutaneous dose, C57Bl/6 mice, vs GFP", "experimental": "Mouse food intake and energy expenditure—Food intake and energy expenditure were measured using the CLAMS System (Comprehensive Lab Animal Monitoring System, Columbus Instruments). Animals were acclimatized in the recording chambers for 48-72 hours, and measurements were taken subsequently for 24 hours during the light cycle and dark cycle. Mice received food and water ad libitum, or after an overnight fast where indicated. Oxygen consumption and food intake were recorded.\nAs previously described (Yan et al., 2016), male mice were anesthetized with inhaled isoflurane and stainless steel cannulas (Plastics One) were inserted into the lateral ventricles (0.34 mm caudal and 1 mm lateral from bregma; depth, 2.3 mm). […] These mice received 10 ng GFP ([…]) twice a day for 3 continuous days, and 10 ng asprosin (in […]) the last day. The BioDAQ food intake monitoring system (Research Diets, Inc) was used to monitor the food intake, and the food intake from the last GFP injection and asprosin were compared.\nMouse body composition—Body composition was analyzed using an ECHO-MRI system (Echo medical systems, Texas) or DEXA scans where indicated. Lean mass, fat mass, and overall body weight were calculated using the manufacturer-provided software."}, "[4]": {"assay": "Asprosin plasma half-life (biotinylated asprosin sandwich ELISA)", "type": "in vivo", "conditions": "mammalian cell expressed asprosin, subcutaneous, mice, FIG. 50B", "experimental": "Asprosin Plasma Half-life—Asprosin expressed in HEK293 was labeled with biotin using a EZ-Link Sulfo-NHS-Biotin kit (Thermo Scientific), and excess biotin was removed using a Zeba Spin desalting column (Thermo Scientific). Final protein concentration was estimated using a BCA assay (Thermo Scientific). Approximately 30 ug/mouse of labeled asprosin was injected subcutaneously into C57Bl/6 mice. Blood was drawn before injection (baseline), and 30, 60, 120, and 360 minutes after injection, as well as after 24 and 48 hours. Biotinylated asprosin was detected using a custom designed sandwich ELISA. A plate was coated with the anti-asprosin monoclonal antibody (capture antibody), total plasma asprosin was bound, and only biotinylated asprosin was detected using Streptavidin-HRP."}}, "data": [{"molecule": "O=C(Nc1cc(C(=O)Nc2ccc(S(=O)(=O)[O-])cc2S(=O)(=O)[O-])cc(C(=O)Nc2ccc(S(=O)(=O)[O-])cc2S(=O)(=O)[O-])c1)Nc1cc(C(=O)Nc2ccc(S(=O)(=O)[O-])cc2S(=O)(=O)[O-])cc(C(=O)Nc2ccc(S(=O)(=O)[O-])cc2S(=O)(=O)[O-])c1.[Na+].[Na+].[Na+].[Na+].[Na+].[Na+].[Na+].[Na+]", "note": "[NF449, reference compound]", "values": [{"measurement": "effect of pre-treating on asprosin-mediated AgRP neuron activation (firing frequency and resting membrane potential)", "setting": "AgRP neurons", "value": "completely prevented"}]}, {"molecule": "Nc1ncc2c(n1)CC(c1ccco1)CC2=O", "note": "(stereo not drawn) [NKY80, reference compound]", "values": [{"measurement": "effect of pre-treating on asprosin-mediated AgRP neuron activation (firing frequency and resting membrane potential)", "setting": "AgRP neurons", "value": "completely prevented"}]}, {"molecule": "Cc1ccc(C(=O)Nc2ccc(S(=O)(=O)O)c3cc(S(=O)(=O)O)cc(S(=O)(=O)O)c23)cc1NC(=O)c1cccc(NC(=O)Nc2cccc(C(=O)Nc3cc(C(=O)Nc4ccc(S(=O)(=O)O)c5cc(S(=O)(=O)O)cc(S(=O)(=O)O)c45)ccc3C)c2)c1", "note": "[suramin, reference compound]", "values": [{"measurement": "effect on asprosin-mediated hepatocyte PKA activation", "setting": "[1]", "value": "blocked"}, {"measurement": "effect of pre-treating on asprosin-mediated AgRP neuron activation (firing frequency and resting membrane potential)", "setting": "AgRP neurons", "value": "completely prevented"}]}, {"molecule": "I^125-Asprosin: Recombinant asprosin labeled with iodine-125", "values": [{"measurement": "site of accumulation (SPECT, liver photon intensity)", "setting": "[2]", "value": "trafficked primarily to the liver"}]}, {"molecule": "PTX: Gαi inhibitor [reference compound]", "values": [{"measurement": "effect of pre-treating on asprosin-mediated AgRP neuron activation (firing frequency and resting membrane potential)", "setting": "AgRP neurons", "value": "no impact"}]}, {"molecule": "[D-Lys3]-GHRP-6 [reference compound]", "values": [{"measurement": "effect of pre-treating on asprosin-mediated AgRP neuron activation (firing frequency and resting membrane potential)", "setting": "AgRP neurons", "value": "no impact"}]}, {"molecule": "B1", "values": [{"measurement": "food intake over the next 24-hr", "setting": "[3]", "value": "greater food intake"}, {"measurement": "dose-dependency of AgRP neuron activation (firing frequency, membrane potential)", "setting": "AgRP neurons; 0.01-100 nM, intact slices", "value": "dose-dependent activation"}, {"measurement": "EC50 for AgRP neuron activation", "setting": "AgRP neurons; firing frequency and membrane potential", "value": "nanomolar to subnanomolar range"}, {"measurement": "plasma half-life", "setting": "[4]", "value": "~2.42", "unit": "h"}, {"measurement": "plasma half-life", "setting": "[4]; listed as Mammalian asprosin", "value": "approximately 145 minutes"}]}]}
